85 molecules from a melting point compilation (Tetko et al.; mined from patent text by program, amines drawn as free bases though some values may be those of a salt) can be followed below.

For orientation: melting point means the temperature, or range, at which the solid turns liquid. On to `COCCOc1cc(OC)c(C(CC(=O)Nc2cc(C(N)=O)ccc2C(C)(C)C)CC(C)C)cc1Cl` (stereo not given), for which the melting point lay within 178 to 179 °C.
`CCC1Cc2ccc(C(C)C(=O)O)cc2C1=O` (stereo not given) yielded a melting point of 85 to 86 °C.
`CCN1C(=O)C(C)(C)C(=O)N(C)c2cc(CN(CCn3ccc4oc(C)cc4c3=O)Cc3cc(C)n(C)n3)ccc21` showed a melting point of 138 to 139 °C.
`Cc1ccc2occ(C3CCN(CCc4cc5c(s4)CCCC(=O)N5)CC3)c2c1` yielded a melting point of 156 to 158 °C.
Regarding `N#Cc1ccccc1S(=O)(=O)c1ccc(N)cc1`, the melting point was 177 to 179 °C.
For the molecule `CCCOc1ccc(S(=O)(=O)NC[C@@H](C(=O)NO)N2CCN(S(C)(=O)=O)CC2)cc1`, the melting point was 137 °C.
`[N-]=[N+]=Cc1ccc([N+](=O)[O-])cc1`: the melting point was in the range of 80 to 82 °C.
`CSc1ccc2c(c1)CN(C(C)C)S(=O)(=O)N2CCCl`: the melting point is 74 to 75 °C.
`Cn1nc2n(c1=O)-c1ccc(Cl)nc1C(c1ccccc1Cl)=NC2`: the melting point was in the range of 200 to 202 °C.
To `N#Cc1ccc(CNc2cc(C(N)=O)c([N+](=O)[O-])cc2[N+](=O)[O-])cc1` belongs 201 to 203 °C; to `CNCCON=C1c2ccccc2C2CC2c2ccccc21` (stereo not given), 100 to 101 °C.
To `CCOC(=O)Cc1[nH]c(C(=O)OC(C)(C)C)c(CCc2cccc(Cl)c2)c1C(=O)OCC` belongs 131 to 132 °C; to `CNC(=O)c1cc(-c2ccc(SC)cc2)nn(CC(C)C)c1=O`, 130 to 131 °C; to `Cc1ccc(C2(c3ccc(C)cc3)NC(=O)N(CCCN3CCC(C#N)(c4ccccc4)CC3)C2=O)cc1`, 157 to 159 °C.
As for `C[C@H]1C=CC2=C[C@@H](O)C[C@H](OC(=O)C(C)(C)C)[C@@H]2[C@H]1CC[C@@H]1C[C@@H](O)CC(=O)O1`, the melting point lay within 132 to 133 °C.
In turn, `CCOC(=O)c1c(O)c2cnc(SC)nc2n(C)c1=O` registered a melting point of 166 to 168 °C.
For `CC(C)(O)c1cc(C#N)ccc1O`, the melting point lay within 129 to 130 °C.
Regarding `CC(C)(C)c1cc(C(=O)Oc2ccc(C(=O)O)cc2)cc(C(C)(C)C)c1O`, the melting point fell in the range of 223 to 224 °C.
The molecule `CCCc1nc2ccnn2c(O)c1Cc1ccc(-c2ccccc2C(=O)O)cc1` showed a melting point of 230 to 240 °C.
As to `COc1cc(Oc2cccc(C(F)(F)F)c2)nc(C(=O)NC(OC)C(F)(F)F)c1` (stereo not given), the melting point was 102 to 104 °C.
`CCCCCNC(=O)N(C)c1ncc(-c2ccc(C[C@H](OCC)C(=O)O)cc2)s1` returned a melting point of 114 °C.
To `CN1CCN(CC2COCc3nc4c(N)nc5ccccc5c4n32)CC1` (stereo not given) belongs 187 to 190 °C.
`CNc1cnc(-c2cccnc2)s1`: the melting point was 141 to 146 °C.
To `CC(=O)Oc1c(C)c(C)c2c(c1C)C(=O)CC(C)(COc1ccc(N)cc1)O2` (stereo not given) belongs 177 to 178 °C.
`O=c1ccc(-c2ccc(Cl)c(C(F)(F)F)c2)n[nH]1` showed a melting point of 249 to 251 °C.
Regarding `O=S1(=O)N=CN(C2CC2)c2ccc(F)c(F)c21`, the melting point was in the range of 205 to 206 °C.
In the case of `C#CCOc1ccc(C(=O)C=Cc2ccccc2)c(O)c1`, the melting point lay within 115 to 117 °C.
To `Cc1nn(C)c(F)c1C(=O)Nc1cccc2c1CCC2(C)C` belongs 138 °C; to `CC(C)(C)OC(=O)Cn1ncc2c1CCN(C(=O)OC(C)(C)C)C2`, 126 to 127 °C; to `COC(=O)c1cc(O)c2cc(OC)ccc2c1`, 193 to 195 °C.
`CCCCN(CCCC)CCCOc1ccc(S(=O)(=O)c2c(C(C)(C)C)cn3ccccc23)cc1` yielded a melting point of 90 to 92 °C.
To `COC(=O)c1ccc(CCc2c[nH]c3nc(N)[nH]c(=O)c23)cc1` belongs above 220 °C.
In the case of `COc1ccc(CCOS(N)(=O)=O)cc1OC`, the melting point was in the range of 106 to 108 °C.
To `CC(Cc1ccc(OCCO)cc1)NCC(O)c1ccccc1F` (stereo not given) belongs 80 to 95 °C; to `CCCCOc1cc(/C=C(\OCC)C(=O)O)ccc1OCCc1ccc(N(C)C(C)=O)cc1`, 121 °C; to `COc1cc(COc2nn(-c3ccccc3)cc2/C=C\c2csc(C)n2)ccc1OCc1nc(-c2ccco2)oc1C`, 111 to 112 °C.
To `Cc1cnc(Oc2cccc(C(F)(F)F)c2)c(C(=O)Nc2ccc(F)cc2F)c1` belongs 133 to 135 °C.
As for `Fc1cc(F)c(COc2cccnc2NC(=S)Nc2ccc(Cl)cc2)c(F)c1`, the melting point was in the range of 181 to 183 °C.
As for `Cc1oc(-c2ccccc2)nc1COc1ccc(CON=C(CCC(=O)O)c2ccc(Oc3ccccc3)cc2)cc1`, the melting point lay in the range of 131 to 132 °C.
Take `CCOC(=O)c1cnc2n(c1=O)-c1ccccc1N(C(=O)OCC)C2`: the melting point was in the range of 140 to 142 °C.
`COc1ccc(C(=O)N2CCN(c3ccc(N)c(C=CC(=O)O)c3)CC2)cc1OC` gave a melting point of 168 to 170 °C.
In turn, `O=C(O)C(CCN1C(=O)c2ccccc2C1=O)Oc1c(Br)cc(-c2ccc(-c3c(Cc4ccccc4)sc4ccccc34)cc2)cc1Br` (stereo not given) returned a melting point of 113 to 115 °C.
On to `O=C(c1ccccc1)c1ccc2nc(-c3ccc(Br)o3)[nH]c2c1`, for which the melting point lay in the range of 167 to 172 °C.
The molecule `O=[N+]([O-])c1cnc(N2CCN3CCC2CC3)nc1` came in with a melting point of 135 to 139 °C.
To `Cc1cc(=O)c(Oc2ccc(Cl)cc2)c(-c2ccc(S(N)(=O)=O)cc2)o1` belongs 221 °C.
`O=C1NN=C(c2ccc(NC(=O)C(F)(F)F)cc2)C2CC12` (stereo not given) yielded a melting point of 242 to 243 °C.
To `COc1ccc2c(c1)c1c3c(c(-c4ccccc4Cl)cc1n2CCC(=O)NS(C)(=O)=O)C(=O)NC3=O` belongs 293 to 295 °C; to `CCN(c1nc(C)cc(C(C)Cn2cnnn2)n1)c1ccc(C(C)C)cc1Br` (stereo not given), 127 to 129 °C.
Turning to `CCOC(=O)C=c1sc2n(c1=O)Cc1ccccc1N=2`, the melting point was in the range of 222 to 224 °C.
In the case of `O=[N+]([O-])c1ccc(Cl)c(N=Cc2ccccc2O)c1`, the melting point lay within 168 to 169 °C.
In the case of `N#Cc1ccc(-c2ccc(Cl)nn2)cc1`, the melting point was 236 to 238 °C.
The molecule `CCOP(=O)(Cc1ccc(NC(=O)CCc2cnoc2-c2ccccc2)cc1)OCC` came in with a melting point of 139 to 140 °C.
The molecule `CC(C)(C)c1cc(CCC2(CCc3cc(C(C)(C)C)c(O)c(C(C)(C)C)c3)NC(=O)NC2=O)cc(C(C)(C)C)c1O` returned a melting point of 218 to 220 °C.
`COc1cccc2c1CCC(n1cc[nH]c1=S)C2` (stereo not given): the melting point was in the range of 233 to 235 °C.
Take `Clc1cccc2c(C3CCN(CCCOc4cccc5[nH]ccc45)CC3)c[nH]c12`: the melting point was in the range of 178 to 182 °C.
As for `COC(=O)CCCCc1cc2c(n1-c1ccccc1)CC(O)C2` (stereo not given), the melting point was 83 to 85.5 °C.
The molecule `COc1cc2c(cc1Nc1ncc(Cl)c(Nc3ccccc3S(=O)(=O)N(C)C)n1)N(CC(=O)N(C)C)C(=O)CN(CC(=O)N(C)C)C2` had a melting point of 154 °C.
`CCOc1ccc(CCNC(=O)c2cnc3ccccc3c2)cc1S(N)(=O)=O` registered a melting point of 222 to 231 °C.
On to `Nc1ccc(S(=O)(=O)c2cc(-c3ccc(Cl)cc3)nc(N3CCCC3)c2)cc1`, for which the melting point is 236 to 237 °C.
Turning to `O=C(O)CC1(c2ccccc2)CCCC1C(=O)O` (stereo not given), the melting point fell in the range of 205 to 208 °C.
To `CCOC(=O)C(=NOCCI)c1csc(NC(c2ccccc2)(c2ccccc2)c2ccccc2)n1` belongs 110 °C; to `Cc1n[nH]c(-c2ccc(F)cc2)c1-c1ccc2c(c1)NC(=O)CO2`, 295 to 298 °C.
Turning to `CC1(C)CCc2c(N3CCCC3)nc3sc4c(NCc5ccco5)ncnc4c3c2C1`, the melting point lay in the range of 201 to 202 °C.
`CCC(=N)Nc1ccccc1N1CCOCC1`: the melting point worked out at 114 °C.
In turn, `COc1cc(Nc2c(C#N)cnc3cc(-c4ccc(CNCCS(C)(=O)=O)cc4)ccc23)c(Cl)cc1Cl` yielded a melting point of 245 to 246 °C.
The molecule `Cc1ccc(C#N)nc1` displayed a melting point of 72 to 74 °C.
For the molecule `Cc1cc(-n2ccnc2)c2cccc(OCc3c(Cl)ccc(S(=O)(=O)N4CCC[C@H]4C(=O)NCC4CCN(C(=O)c5cccnc5)CC4)c3Cl)c2n1`, the melting point was determined as 109 °C.
Consider `COC(C(=Cc1ccc(Cl)cc1)n1cncn1)C(C)(C)C` (stereo not given), for which the melting point lay in the range of 63 to 66 °C.
For `COC(=O)C1CC(C#N)(c2ccc(OC)c(OC)c2)CCC1=O` (stereo not given), the melting point is 102 to 108 °C.
`CC1Cc2ccc(Cl)cc2C(c2ccc([N+](=O)[O-])cc2)=NN1C(=S)Cl` (stereo not given) yielded a melting point of 210 to 214 °C.
Take `Oc1c(Cc2ccccc2)ccc2[nH]ccc12`: the melting point lay within 104 to 106 °C.
Turning to `CNC(=O)[C@@H]1C[C@H](OS(=O)(=O)c2ccc(C)cc2)CN1S(=O)(=O)c1ccc(C)cc1`, the melting point was 147 to 149 °C.
For `N#CCCSN1C(=O)c2ccccc2C1=O`, the melting point lay in the range of 162 to 164 °C.
Regarding `CN1C(=O)[C@H](NC(=O)C(c2ccccc2)c2ccccc2)N=C(c2ccccc2)c2ccccc21`, the melting point fell in the range of 200 to 201 °C.
To `CC(=O)c1cc(NC(=O)NCCN(CCNC(=O)Nc2cc(C(C)=O)cc(C(C)=O)c2)CCNC(=O)Nc2cc(C(C)=O)cc(C(C)=O)c2)cc(C(C)=O)c1` belongs 197 to 198 °C.
In the case of `Cc1cn(C(C)(C)C(=O)N(C)C)nc1-c1ccccc1Cl`, the melting point lay within 175 to 176 °C.
To `CN(O)C(=O)C=Cc1ccc(Cl)c(O)c1` belongs 196 °C; to `COC(=O)C1=C(C)NC(C)=C(C(=O)OC)C1c1ccccc1NC(C)=O`, 284 to 285 °C.
The molecule `CN(C)NC(=O)c1c([Si](C)(C)C)ccc(Cl)c1Cl` returned a melting point of 144 to 145 °C.
Take `Nc1ccccc1Oc1ccc2c(c1)OCC(=O)N2`: the melting point was in the range of 149 to 150 °C.
In turn, `O=Cc1c2ccccc2cc2ccc(Cl)cc12` yielded a melting point of 148 to 150 °C.
Molecule `CC(=O)C(=Cc1ccc(Cl)c(Cl)c1)C(C)=O` yielded a melting point of 73 °C.
With `COc1cc(Br)ccc1-c1ccc(Br)cc1N`, the melting point was 94.5 to 97 °C.
To `CN(C)S(=O)(=O)c1cccc2c1Sc1ccc(OC3CCCCO3)cc1N2CCCN1CCC(CCO)CC1` (stereo not given) belongs 129 to 131 °C.
Molecule `CCc1cc(C(O)(CC)CC)ccc1-c1cc(OCc2ccc(CO)c(CO)c2)ccc1CC` gave a melting point of 93 °C.
